The record followed here is patent US11389415B2, “Methods of regulating cannabinoid receptor activity-related disorders and diseases” (The United States of America as represented by the …, priority 2012, dated 2022).

One experiment relates to HepG2 and PANC-1 cells. As to the kind of experiment: Cell morphology and EGFR expression in HepG2 and PANC-1 cells. Type of experiment: cell-based, human. Here is the method:
FIGS. 26A-26C show MNF interferes with inducible changes in cell morphology and expression of EGFR. […] White arrows show individual cells with filopodia. FIG. 26C, Cell lysates were prepared from similar studies and immunoblotted for EGFR. The membranes were reprobed for Hsp90, which served as a loading control.
Western blot analysis. For detection of intracellular signaling proteins, cells were lysed in radioimmunoprecipitation buffer containing EGTA and EDTA (Boston BioProducts, Ashland, Mass.). The lysis buffer contained a protease inhibitor cocktail (Sigma-Aldrich) and phosphatase inhibitor cocktail (Calbiochem, San Diego, Calif.). Equivalent amount of proteins (14 and 54 μg/well for PANC-1 and HepG2 cells, respectively) were separated on 4 to 12% precast gels (Invitrogen, Carlsbad, Calif.) using SDS-polyacrylamide gel electrophoresis under reducing conditions and then electrophoretically transferred onto polyvinylidene fluoride membrane (Invitrogen). Western blots were performed according to standard methods, which involved blocking in 5% non-fat milk and incubated with the antibody of interest, followed by incubation with a secondary antibody conjugated with the enzyme horseradish perodixase. The detection of immunoreactive bands was performed by chemiluminescence using the ECL Plus Western Blotting Detection System (GE Healthcare, Piscataway, N.J.). The quantification of bands was done by volume densitometry by using ImageJ software. The rabbit polyclonal antibodies against EGFR were obtained from Cell Signaling Technology, Inc. (Beverly, Mass.) and the monoclonal anti-Hsp90 was purchased from Santa Cruz Biotechnology, Inc. (Santa Cruz, Calif.).

In the next experiment the test system is PANC-1 cells. As to the kind of experiment: Scratch wound-healing assay, PANC-1 cells. Format: cell-based, human. The conditions noted are these: PANC-1, 1 μM. On the procedure:
Scratch assays. These assays were carried out essentially as described previously (Fiori et al., Endocrinology 150: 2551-2560, 2009). In brief, cells were seeded in 12-well nontreated polystyrene cell culture plates with flat bottom (Greiner Bio-One, Monroe, N.C.). Once the cells became confluent, a scratch wound was made with a pipette tip and pictured immediately (time 0). […] Cell migration was examined at 12, 24, 36, 48 hours and 12, 18, 24, 48 hours after scratch for the HepG2 and PANC-1 cells, respectively. Images of the same field were taken every 3 hours to determine the rate of cell migration. Images were captured on an Axiovert 200 inverted microscope (Carl Zeiss, Thornwood, N.Y.) mounted with an AxioCam HRc digital camera (Carl Zeiss) and the measurement of scratch area was performed with ImageJ 1.46s software (National Institutes of Health, Bethesda, Md.). Each study was performed in duplicate dishes and repeated at least twice.

Turning to `COc1ccc(C[C@@H](C)NC[C@H](O)c2cc(O)cc(O)c2)c2ccccc12` [(R,R′)-MNF, (R,R′)-4′-methoxy-1-naphthylfenoterol], the “effect on O-1602-induced EGFR levels” value in the experiment with HepG2 and PANC-1 cells (1 μM pretreatment) is listed as “MNF blocked this effect”. Besides, the “effect on change in morphology induced by AM251 and O-1602” value with HepG2 and PANC-1 cells (1 μM pretreatment 30 minutes, agonists 5 μM 16 hours) is “rendered the cells refractory to the change in morphology induced by AM251 and O-1602”. For the same compound, in the experiment on PANC-1 cells, the “cell motility, compound alone” value was “did not alter the constitutive rate of gap filling”. The “effect on AM251-induced motility” value in the experiment with PANC-1 cells (AM251 1 μM) is on record as “produced significant decrease in AM251-induced motility of PANC-1 cells”. Further, the “effect on wound closure evoked by O-1602” value in the experiment with PANC-1 cells (O-1602 1 μM) was “inhibit the wound closure evoked by O-1602 in PANC-1 cells”.
